The values that follow come from patent US7820703B2, “Lysophosphatidic acid receptor selective antagonists” (University of Virginia Patent Foundation, priority 2004, dated 2010).

Entries after “also recorded” stand apart in the source; their conditions may differ.

What all share (type): biochemical
For experiment [1], the target named is T1, human LPA3 (Homo sapiens, UniProt Q9UBY5).
T1 sequence (Q9UBY5 1-353): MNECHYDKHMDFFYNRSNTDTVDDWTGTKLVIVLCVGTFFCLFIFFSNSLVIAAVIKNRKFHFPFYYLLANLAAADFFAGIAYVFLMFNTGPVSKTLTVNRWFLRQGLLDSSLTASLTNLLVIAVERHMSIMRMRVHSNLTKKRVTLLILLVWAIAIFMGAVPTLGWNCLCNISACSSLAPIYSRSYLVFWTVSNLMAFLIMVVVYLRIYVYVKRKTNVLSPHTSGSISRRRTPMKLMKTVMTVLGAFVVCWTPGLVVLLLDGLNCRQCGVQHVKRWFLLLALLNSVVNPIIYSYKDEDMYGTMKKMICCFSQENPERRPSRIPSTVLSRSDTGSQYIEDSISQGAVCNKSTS
Description: GTP[γ35S] binding assay, agonist activity at LPA3. Further details: expressed in transfected cells; host or cells: HEK293T cells (membranes). Particulars: for LPA3 Emax: LPA = 100; for EC50: transfected HEK293T cell membranes. The protocol:
(§1) The appropriate receptor plasmid DNA (encoding mouse LPA1, human LPA2 or human LPA3) was mixed with equal amounts of expression plasmids (pcDNA3) encoding a mutated (C351F) rat Gi2a, cow β1, and γ2 proteins and these DNAs were used to transfect monolayers of HEK293T cells (where ‘T’ indicates expression of the SV-40 virus large T antigen) using the calcium phosphate precipitate method. After about 60 hours, cells were harvested, membranes were prepared, aliquoted and stored at −70° C. until use.
(§2) The GTP[35 γS] assay was performed as described by us previously. Membranes containing 5 ug of protein were incubated in 0.1 ml GTP-binding buffer (in mM: HEPES 50, NaCl 100, MgCl2 10, pH7.5) containing […], […], 0.1 nM GTP[35 γS] (1200 Ci/mmol), and indicated lipid(s) for 30 minutes at 30° C. Samples were analyzed for membrane-bound radionuclide using a Brandel Cell Harvester (Gaithersburg, Md.). The C351F mutation renders the Gi2α protein resistant to inactivation by pertussis toxin or the alkylating agent N-ethylmaleimide; however in practice background binding was sufficiently low to obviate these maneuvers.
(§3) This assay isolates each recombinant LPA receptor and allows analysis of all three receptors using the same system.
(§4) Membranes prepared from these cells are used to measure GTPγ[^35S] binding as a function of test compound concentration. The resulting dose-response curves provide relative potency (EC50) and efficacy (Emax) for the test compounds.

Another experiment addresses mouse LPA1 (Mus musculus, UniProt P61793). Description: GTP[γ35S] binding assay, agonist activity at LPA1. Also noted: expressed in transfected cells; host or cells: HEK293T cells (membranes). Particulars: for LPA1 Emax: LPA = 100; for EC50: transfected HEK293T cell membranes. Here is the method: as §1, §2, §3, §4
Another experiment addresses human LPA2 (Homo sapiens, UniProt Q9HBW0). In words: GTP[γ35S] binding assay, agonist activity at LPA2. Also noted: expressed in transfected cells; host or cells: HEK293T cells (membranes). Particulars: for LPA2 Emax: LPA = 100; for EC50: transfected HEK293T cell membranes. Here is the method: as §1
(§5) The GTP[35 γS] assay was performed as described by us previously. Membranes containing 5 ug of protein were incubated in 0.1 ml GTP-binding buffer (in mM: HEPES 50, NaCl 100, MgCl2 10, pH7.5) containing […], […], 0.1 nM GTP[35 γS] (1200 Ci/mmol), and indicated lipid(s) for 30 minutes at 30° C. Samples were analyzed for membrane-bound radionuclide using a Brandel Cell Harvester (Gaithersburg, Md.).
as §4

The target of experiment [2] is T1, human LPA3. Description: antagonism of LPA-evoked GTP[γ35S] binding at LPA3. Also noted: expressed in transfected cells; host or cells: HEK293T cells (membranes). Particulars: for antagonist activity at LPA3, in words: GTP[γ35S] binding; for IC50: antagonism of LPA-evoked GTP[γ35S] binding. The protocol: as §1, §5
(§6) The X-intercept of the linear transformation is equal to the inverse log of the KI.
(§7) All compounds were characterized by ^1H and ^13C NMR, mass spectroscopy and, in certain cases, elemental analysis. A GTP[γ35S] binding assay was adapted to assess in vitro activity.
(§8) All compounds were characterized by ^1H and ^13C NMR, mass spectroscopy and, in most cases, C, H, N analyses. A membrane-based GTP[γ^35S] binding assay was adapted to assess in vitro activity at the LPA1 and LPA3 receptors.
On the technique in general: Binding of GTPγS marks nucleotide exchange on a G protein.

The target of another experiment is T2, LPA1 receptor (Mus musculus, UniProt P61793).
T2 construct: expressed in transfected cells; host or cells: HEK293T cells (membranes)
Description: antagonism of LPA-evoked GTP[γ35S] binding at LPA1. Particulars: for antagonist activity at LPA1, in words: GTP[γ35S] binding; for IC50: antagonism of LPA-evoked GTP[γ35S] binding; for Ki: determined by Schild regression. Here is the method: as §1, §5, §6, §7, §8

A further experiment concerns the target T3, LPP3 (PAP2b) (Homo sapiens, UniProt O14495).
T3 sequence (O14495 1-311): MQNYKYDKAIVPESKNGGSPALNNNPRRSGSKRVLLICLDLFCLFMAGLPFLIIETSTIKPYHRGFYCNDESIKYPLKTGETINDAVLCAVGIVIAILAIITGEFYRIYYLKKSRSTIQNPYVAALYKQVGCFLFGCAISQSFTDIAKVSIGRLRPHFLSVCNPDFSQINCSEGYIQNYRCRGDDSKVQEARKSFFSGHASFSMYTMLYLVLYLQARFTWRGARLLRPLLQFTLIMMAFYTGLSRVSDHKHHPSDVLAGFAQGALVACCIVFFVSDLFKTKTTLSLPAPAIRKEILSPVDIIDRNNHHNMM
In words: LPP inhibition, competition with [32P]LPA, LPP3. Particulars: competition with 50 nM [32P]LPA. The protocol: NOHPP was also tested for activity at the three cloned LPPs. Although the phosphonate head group eliminates the possibility of NOHPP acting as a substrate, it is possible that the compound could be a competitive inhibitor.

Sequence of human LPA2 (Q9HBW0 whole entry): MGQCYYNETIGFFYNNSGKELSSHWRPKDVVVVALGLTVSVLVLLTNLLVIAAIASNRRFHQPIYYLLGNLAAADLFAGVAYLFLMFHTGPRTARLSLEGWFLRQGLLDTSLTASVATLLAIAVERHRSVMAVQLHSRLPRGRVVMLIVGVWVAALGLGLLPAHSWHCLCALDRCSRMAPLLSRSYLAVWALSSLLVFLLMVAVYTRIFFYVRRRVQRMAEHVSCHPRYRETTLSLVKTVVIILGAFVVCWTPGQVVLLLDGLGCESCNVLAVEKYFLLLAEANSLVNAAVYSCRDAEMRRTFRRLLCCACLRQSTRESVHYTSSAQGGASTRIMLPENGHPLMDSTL
Sequence of mouse LPA1 (P61793 whole entry): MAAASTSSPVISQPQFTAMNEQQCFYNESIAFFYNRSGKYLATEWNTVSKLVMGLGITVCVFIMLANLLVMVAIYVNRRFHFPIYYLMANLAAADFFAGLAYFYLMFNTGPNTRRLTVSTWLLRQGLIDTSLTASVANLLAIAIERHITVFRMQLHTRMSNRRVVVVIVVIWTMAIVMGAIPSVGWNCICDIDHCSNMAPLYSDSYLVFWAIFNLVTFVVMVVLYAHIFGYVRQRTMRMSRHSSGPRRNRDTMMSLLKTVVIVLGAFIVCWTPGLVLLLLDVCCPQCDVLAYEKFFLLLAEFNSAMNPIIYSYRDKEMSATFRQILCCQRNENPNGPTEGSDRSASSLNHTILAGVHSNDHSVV
T2 sequence (P61793 whole entry): as above

By EC50 is commonly meant the concentration at which the effect is half-maximal. Read a high EC50 as a need for much substance. Regarding `CCCCCCCC/C=C\CCCCCCCC(=O)N[C@H](CC)COP(=O)(O)O` [VPC12109], on human LPA3 [1], the “LPA3 Emax” value was 83.5 and the EC50 was determined as 1080 nM. Moreover, on mouse LPA1, the “LPA1 Emax” value is recorded as 66.8 and the EC50 was found to be 35.8 nM. On human LPA2, the “LPA2 Emax” value was determined as 92.6 and the EC50 was found to be 162 nM.
Turning to `CCCCCCCCC=CCCCCCCCC(=O)NC(COP(=O)(O)O)Cc1ccc(OC(=O)c2ccc(N)cc2)cc1` (stereo not shown) [Compound 35p], the “antagonist activity at LPA3, in words” value on human LPA3 [2] is on record as “devoid of activity”. Besides, the “antagonist activity at LPA1, in words” value on LPA1 receptor was “devoid of activity”.
Broadly, the IC50 is the concentration needed to halve the response being measured. A lower IC50 goes with greater potency. In the case of `CCCCCCCC/C=C\CCCCCCCC(=O)N[C@@H](COP(=O)(O)O)C(=O)c1ccc(OCc2ccccc2)cc1` [Compound 39a], the IC50 at human LPA3 [2] and on LPA1 receptor was above 10000 nM throughout.
`CCCCCCCC/C=C\CCCCCCCC(=O)N[C@H](COP(=O)(O)O)Cc1ccc(OCc2ncc(C)c(OC)c2C)cc1` [Compound 57m]: the concentration for half-maximal inhibition (IC50) at human LPA3 [2] stood at 561 nM; on LPA1 receptor it was 3690 nM.
In the same order, the values of `CCCCCCCC/C=C\CCCCCCCC(=O)N[C@@H](COP(=O)(O)O)Cc1ccc(OCc2ccc3ccccc3n2)cc1` [Compound 57n] are 533 nM and 1430 nM.
The corresponding values for `CCCCCCCC/C=C\CCCCCCCC(=O)N[C@H](COP(=O)(O)O)Cc1ccc(OCc2cc(OC)c3ccccc3n2)cc1` [Compound 57p] are 2600 nM and above 10000 nM.
With `CCCCCCCC/C=C\CCCCCCCC(=O)N[C@H](CO)COP(=O)(O)O` [VPC31143], on mouse LPA1, the “agonist activity at LPA1, in words” value was “more potent than 1-oleoyl LPA”.
Regarding `CCCCCCCC/C=C\CCCCCCCC(=O)N[C@H](C)COP(=O)(O)O` [VPC12086], on human LPA3 [1], the “LPA3 Emax” value is on record as 93.4 and the concentration for a half-maximal effect (EC50) was 113 nM. On mouse LPA1, the “agonist activity at LPA1, in words” value is “more potent and efficacious than LPA; also recorded: more potent than 1-oleoyl LPA”; the “LPA1 Emax” value came to 107.6; the EC50 was 3.4 nM. On human LPA2, the “LPA2 Emax” value was 95.2 and the EC50 stood at 18.3 nM.
For “1-acyl, 2-hydroxyl-sn-glycerol-3-phosphate [LPA, reference compound]”, on human LPA3 [1], the “LPA3 Emax” value worked out at 100 and the EC50 amounted to 262 nM. In addition, the EC50 at human LPA2 stood at 6.8 nM.
For orientation: Ki means a measure of affinity in units of concentration, obtained from inhibition or displacement. A lower Ki goes with higher affinity. As for `CCCCCCCC/C=C\CCCCCCCC(=O)N[C@@H](COP(=O)(O)O)Cc1ccc(OCc2cc(OCC)ccn2)cc1` [Compound 57h], the IC50 at human LPA3 [2] came out at 39 nM. On LPA1 receptor, this compound yielded an IC50 of 143 nM and a Ki of 26 nM.
Take `CCCCCCCC/C=C\CCCCCCCC(=O)N[C@H](CN)COP(=O)(O)O` [VPC12178]: at human LPA3 [1], the “LPA3 Emax” value came out at 102.9 and the EC50 is 684 nM. In addition, at mouse LPA1, the “agonist activity at LPA1, in words” value is “more potent than 1-oleoyl LPA”; the “LPA1 Emax” value turned out to be 98.7; a half-maximal effect (EC50) was put at 4.9 nM. In addition, at human LPA2, the “LPA2 Emax” value is 103.2 and the response was half-maximal at 50.3 nM (EC50).
As for `CCCCCCCC/C=C\CCCCCCCC(=O)N[C@@H](CCP(=O)(O)O)Cc1ccc(OCc2ncc(C)c(OC)c2C)cc1` [Compound 63d], on human LPA3 [2], the “antagonist activity at LPA3, in words” value is “improved potency over lead compound 26a” and the IC50 is 150 nM. Moreover, on LPA1 receptor, the “antagonist activity at LPA1, in words” value was “no antagonism” and the IC50 was above 10000 nM.
For the compound `CCCCCCCCC=CCCCCCCCC(=O)NC(COP(=O)(O)O)Cc1ccc(OCc2cc(OCC(F)(F)F)ccn2)cc1` (stereo not shown) [Compound 57i], at human LPA3 [2], the “antagonist activity at LPA3, in words” value is “three-fold more potent” and the IC50 was 48 nM. On LPA1 receptor, the “antagonist activity at LPA1, in words” value was “equipotent to 26a”; the IC50 turned out to be 84 nM; the Ki was 19 nM.
Turning to `CCCCCCCC/C=C\CCCCCCCC(=O)N[C@@H](C)COP(=O)(O)O` [VPC12101], on human LPA3 [1], the “LPA3 Emax” value came to 9.7 and the EC50 was above 5000 nM. For the same compound, at mouse LPA1, the “LPA1 Emax” value is on record as 48.1 and the EC50 worked out at 2900 nM. Also, at human LPA2, the “LPA2 Emax” value turned out to be 6.9 and the EC50 was above 5000 nM.
As to `CCCCCCCC/C=C\CCCCCCCC(=O)N[C@@H](COP(=O)(O)O)Cc1ccc(OCc2cc(OCCC)ccn2)cc1` [Compound 57j], on LPA1 receptor, the IC50 came to 141 nM and the Ki was 64 nM.
For `CCCCCCCC/C=C\CCCCCCCC(=O)N[C@H](COP(=O)(O)O)C(=O)c1ccc(OCc2ccccc2)cc1` [Compound 39b], the IC50 on human LPA3 [2] is above 10000 nM. On LPA1 receptor, the “antagonist activity at LPA1, in words” value is on record as “retains potency comparable to 26” and the IC50 amounted to 2490 nM.
With `CCCCCCCC/C=C\CCCCCCCC(=O)NCCC(=O)P(=O)(O)O` [VPC12060], the “inhibition of LPP3” value at LPP3 (PAP2b) is reported as “markedly better at the PAP2b (LPP3) than PAP2a (LPP1)”.
For the compound `CCCCCC=CCC=CCCCCCCCC(=O)NC(COP(=O)(O)O)Cc1ccc(OCc2ccccc2)cc1` (stereo not shown) [Compound 29e], on LPA1 receptor, the “antagonist activity at LPA1, in words” value was “potency comparable to lead compound 26”.
On to `CCCCCCCC/C=C\CCCCCCCC(=O)N[C@H](COP(=O)(O)O)Cc1ccc(OCc2cccc(OC)n2)cc1` [Compound 57f], for which the IC50 at human LPA3 [2] was 1090 nM; at LPA1 receptor, above 10000 nM.
In the case of `CCCCCCCC/C=C\CCCCCCCC(=O)N[C@@H](CN)COP(=O)(O)O` [Compound 12048], on human LPA3 [1], the “LPA3 Emax” value is 3.8 and the EC50 was above 5000 nM. For the same compound, on mouse LPA1, the “LPA1 Emax” value turned out to be 9.4 and the EC50 is above 5000 nM. Further, at human LPA2, the “LPA2 Emax” value is 36.4 and the EC50 is above 5000 nM.
Compound `CCCCCCCC/C=C\CCCCCCCC(=O)N[C@@H](COP(=O)(O)O)Cc1ccc(OCc2ncc(C)c(OC)c2C)cc1` [Compound 57l] registered an IC50 on human LPA3 [2] of 39 nM. In addition, at LPA1 receptor, the IC50 came to 62 nM and the affinity corresponds to a Ki of 28 nM.
